Experimental data from US11173156B2, “Solid forms of a kynurenine-3-monooxygenase inhibitor” (CHDI Foundation, Inc., priority 2019, dated 2021).
Entries after “also recorded” stand apart in the source; their conditions may differ.

What was measured:
Type in all cases: physicochemical
[1] = XRPD analysis of remaining solids from aqueous solubility assessments; details: solids recovered from mother liquor of aqueous solubility assessment
From the text: Compound I ethylenediamine A+B disproportionated, as peaks similar to those observed for Compound I free acid Material C were observed.

[2] = Deliquescence of salts/co-crystals during exposure to 75% RH; details: ambient temperature, 3 day exposure; for Observation (deliquescence): visual
Method: The salts identified from the salt/co-crystal screen of Compound I (see section 4 above) were assessed visually for deliquescence during exposure to 75% RH at ambient temperature (Table 5). […] The materials from these experiments were recovered and re-analyzed by XRPD to determine if changes in solid form occurred.

[3] = Approximate aqueous solubility of salts/co-crystals (visual, solvent addition method); details: water; for solubility: estimated visually, solvent addition method
Method: (§1) A weighed sample was treated with aliquots of the test solvent at room temperature. The mixture was sonicated between additions to facilitate dissolution. Complete dissolution of the test material was determined by visual inspection. Solubility was estimated based on the total solvent used to provide complete dissolution. Some samples were then heated and observed visually for complete dissolution. The actual solubility may be greater than the value calculated because of the use of solvent aliquots that were too large or due to a slow rate of dissolution. […] If complete dissolution was achieved as a result of only one aliquot addition, the solubility is expressed as “greater than.”

[4] = Dynamic vapor sorption/desorption (DVS)
Method: Moisture sorption/desorption data were collected on a VTI SGA-100 Vapor Sorption Analyzer. NaCl and PVP were used as calibration standards. Samples were not dried prior to analysis. Sorption and desorption data were collected over a range from 5% to 95% RH at 10% RH increments under a nitrogen purge. The equilibrium criterion used for analysis was less than 0.0100% weight change in 5 minutes with a maximum equilibration time of 3 hours. Data were not corrected for the initial moisture content of the samples.

[5] = Slurry experiments (form stability); details: for relative stability of the form (in words): at the conditions evaluated
Method: Solutions were prepared by adding enough solids to a given solvent so that excess solids were present. The mixture was then agitated in a sealed vial at either ambient or an elevated temperature. After a given amount of time, the solids were isolated for analysis.
The formation and stability of solid forms of the sodium salt of Compound I was further evaluated via slurry experiments. The slurries were formed by combining Compound I sodium Pattern A and a solvent, and allowing the slurry to equilibrate at room temperature. If a free flowing slurry was not achieved, an additional amount of the respective solvent was added before the room temperature equilibration step. All slurries were isolated via centrifuge filtration after five days and twelve days of equilibration. The solids were analyzed by XRPD to check for pattern conversion (Table 13).

[6] = Water activity interconversion slurries; details: for water activity at which the form is stable / favored: competitive water activity slurries
From the text: The resulting solid phase was characterized by XRPD (Table 16). The experiments establish the physically stable form at various aw.
Water activity is related to relative humidity in that RH %=aw×100. Therefore, it is possible to directly relate the stability of an anhydrous/hydrate system in slurry experiments to solid state stability. Slurry technique at controlled water activities provides an accurate method of rapidly predicting the physically stable form in anhydrous/hydrate systems. This method is particularly valuable when relatively slow kinetics of conversion in the solid state prevents reaching true equilibrium in a reasonable timeframe, since solvent-mediated transformation accelerates the conversion process.

[7] = Solubility of Compound I sodium salt forms in solvents and binary solvent systems
Method: as §1

[8] = Stability at elevated temperatures (XRPD, HPLC); details: for HPLC: after storage at 60 ° C. (time point not given)
Method: The stability of Compound I sodium Patterns A, C, and D and Form B, at about 60° C. was evaluated. These forms were weighed into vials covered with a Kimwipe tissue and stored in an oven at 60° C. and ambient pressure. After three days and ten days of exposure, the solids were analyzed by XRPD to check for form conversion. […].

[9] = Competitive slurry experiments
Method: Competitive slurry experiments were also conducted to evaluate form stability of the solid forms of the sodium salt of Compound I. Slurries were prepared by combining Compound I sodium Pattern A, Form B, Pattern C and Pattern D with a solvent, allowing the slurry to equilibrate with stirring at room temperature. The slurries were analyzed at three day and ten day time points, filtered, and analyzed by XRPD (Table 14).

[10] = Stability at elevated temperatures (XRPD, HPLC)
[11] = Physical stability on drying, ambient exposure or heating
[12] = Approximate aqueous solubility of salts/co-crystals (visual, solvent addition method); details: water, thermodynamic from solid, free acid solids retained from filtered aqueous phase, portion rinsed with water, read-out: solubility observed
[13] = listed as Ethylenediamine B + A

## O=C(O)c1cc(-c2ccc(OC3CC3)c(Cl)c2)ncn1 [Compound I ethylenediamine Materials A+B, 6-(3-chloro-4-cyclopropoxyphenyl)pyrimidine-4-carboxylic acid]
[1]; listed as Compound I ethylenediamine A+B
  Result (XRPD of remaining solids): disproportionated
[1]; [13]
  Result (XRPD of remaining solids): Ethylenediamine B + Free Acid C
[2]
  Observation (deliquescence): no deliquescence
[3]
  aqueous solubility (in words): suitable aqueous solubility
[3]; [13]
  solubility: <10000 µg/mL

## O=C(O)c1cc(-c2ccc(OC3CC3)c(Cl)c2)ncn1 [Compound I potassium Material A, 6-(3-chloro-4-cyclopropoxyphenyl)pyrimidine-4-carboxylic acid]
[1]
  Result (XRPD of remaining solids): converted to a new material
[1]; listed as Potassium A
  Result (XRPD of remaining solids): broad reflections
[2]
  Observation (deliquescence): no deliquescence
[3]
  aqueous solubility (in words): suitable aqueous solubility
[3]; listed as Potassium A
  solubility: <4000 µg/mL

## O=C(O)c1cc(-c2ccc(OC3CC3)c(Cl)c2)ncn1 [Compound I sodium Form B, 6-(3-chloro-4-cyclopropoxyphenyl)pyrimidine-4-carboxylic acid]
[4]
  hygroscopicity by DVS analysis (in words): hygroscopic
[4]; about 5% RH
  DVS weight loss upon equilibration at about 5% RH: about 0.03%
[4]; after DVS
  material recovered from the DVS analysis compared with starting material by XRPD: substantially the same as the starting material
[4]; from about 5 to about 95% RH
  DVS weight gain: ~5.39%
[4]; from about 95% to about 5% RH
  DVS weight loss: ~5.14%
[4]; sorption cycle
  gain observed by DVS analysis: ~5 wt %
[1]
  Result (XRPD of remaining solids): remained unchanged by XRPD
[1]; listed as Sodium B
  Result (XRPD of remaining solids): Sodium B
[2]; listed as Sodium B
  Result (XRPD after exposure): Sodium B
[2]
  Observation (deliquescence): no deliquescence
[5]; IPA and acetone
  stability in slurry (in words): stable for about at least seven days
[5]
  relative stability of the form (in words): predominant and most thermodynamically stable form; also recorded: most thermodynamically stable anhydrate form
[3]
  aqueous solubility (in words): desirable aqueous solubility; also recorded: good aqueous solubility
  solubility: 4000 µg/mL
[6]; 0.33 aw, 16:84 H2O/DMF, 6 days
  Results (XRPD form): Form B
[6]; 0.39 aw, 15:85 H2O/MeOH, 6 days
  Results (XRPD form): Form B
[6]; 0.50 aw, 30:70 H2O/DMF, 6 days
  Results (XRPD form): Form B
[6]; 0.58 aw, 6:94 H2O/Acetone, 6 days
  Results (XRPD form): Form B
[6]; 0.70 aw, 50:50 H2O/DMF, 6 days
  Results (XRPD form): Form B
[6]; 0.86 aw, 70:30 H2O/MeOH, 6 days
  Results (XRPD form): Form B
[6]; 0.91 aw, 50:50 H2O/Acetone, 1 day
  Results (XRPD form): Form E
[6]; 0.98 aw, 90:10 H2O/Acetone, 6 days
  Results (XRPD form): Form E
[6]
  water activity at which the form is stable / favored: ≤ 0.86 aw
[7]; Methanol, ambient
  solubility: 6 mg/mL loading
[7]; Water, ambient
  solubility: 2 mg/mL loading
[7]; organic solvent or mixture, thermodynamic from solid, Acetone, 55° C., read-out: Solubility
  solubility: < 2000 µg/mL
[7]; organic solvent or mixture, thermodynamic from solid, Acetone, ambient, read-out: Solubility
  solubility: < 2000 µg/mL
[7]; organic solvent or mixture, thermodynamic from solid, Acetone/water, 94:6 v/v, 55° C., read-out: Solubility
  solubility: < 2000 µg/mL
[7]; organic solvent or mixture, thermodynamic from solid, Acetone/water, 94:6 v/v, ambient, read-out: Solubility
  solubility: < 2000 µg/mL
[7]; organic solvent or mixture, thermodynamic from solid, Acetonitrile, 55° C., read-out: Solubility
  solubility: < 2000 µg/mL
[7]; organic solvent or mixture, thermodynamic from solid, Acetonitrile, ambient, read-out: Solubility
  solubility: < 2000 µg/mL
[7]; organic solvent or mixture, thermodynamic from solid, Acetonitrile/water, 83:17 v/v, ambient, read-out: Solubility
  solubility: 2000 µg/mL
[7]; organic solvent or mixture, thermodynamic from solid, Ethanol, 55° C., read-out: Solubility
  solubility: < 2000 µg/mL
[7]; organic solvent or mixture, thermodynamic from solid, Ethanol, ambient, read-out: Solubility
  solubility: < 2000 µg/mL
[7]; organic solvent or mixture, thermodynamic from solid, Ethanol/water, 88:12 v/v, 55° C., read-out: Solubility
  solubility: ~2000 µg/mL
[7]; organic solvent or mixture, thermodynamic from solid, Ethanol/water, 88:12 v/v, ambient, read-out: Solubility
  solubility: ~2000 µg/mL
[7]; organic solvent or mixture, thermodynamic from solid, Isopropanol, 55° C., read-out: Solubility
  solubility: < 2000 µg/mL
[7]; organic solvent or mixture, thermodynamic from solid, Isopropanol, ambient, read-out: Solubility
  solubility: < 2000 µg/mL
[7]; organic solvent or mixture, thermodynamic from solid, Isopropanol/water, 91:9 v/v, 55° C., read-out: Solubility
  solubility: < 2000 µg/mL
[7]; organic solvent or mixture, thermodynamic from solid, Isopropanol/water, 91:9 v/v, ambient, read-out: Solubility
  solubility: < 2000 µg/mL
[7]; thermodynamic from solid, Water, ambient, read-out: Solubility
  solubility: ≥ 6000 µg/mL
[8]; about 60° C. and about 78° C.
  chemical and physical form changes after storing at elevated temperatures: No chemical and physical form changes were observed
[8]
  HPLC: >99.9 % AUC

## O=C(O)c1cc(-c2ccc(OC3CC3)c(Cl)c2)ncn1 [Compound I sodium Form E, 6-(3-chloro-4-cyclopropoxyphenyl)pyrimidine-4-carboxylic acid]
[9]; acetone and water
  form conversion in competitive slurry: converted to Compound I sodium Form B
[6]
  water activity at which the form is stable / favored: ≥ 0.91 aw
[10]; 65° C., after 20 min and after 50 min
  Results (XRPD form): Form B
[10]; 78° C., 18 days
  Results (XRPD form): Form B
[10]; 205° C., briefly
  Results (XRPD form): Form B + peaks
[10]; under N2: heat to 175° C. then cooled to 150° C., held for 10 minutes
  Results (XRPD form): Form B + peaks

## O=C(O)c1cc(-c2ccc(OC3CC3)c(Cl)c2)ncn1 [Compound I sodium Pattern D, 6-(3-chloro-4-cyclopropoxyphenyl)pyrimidine-4-carboxylic acid]
[9]; water
  form conversion in competitive slurry: Compound I sodium Form B
[5]; acetone and/or isopropanol (trituration, single form or competitive slurry)
  form conversion in slurry / trituration: converted to Compound I sodium Form B
[5]
  relative stability of the form (in words): not stable
[8]; about 60° C.
  chemical and physical form changes after storing at elevated temperature: No chemical and physical form changes were observed
[8]
  HPLC: >99.9 % AUC

## O=C(O)c1cc(-c2ccc(OC3CC3)c(Cl)c2)ncn1 [Compound I sodium Pattern F, 6-(3-chloro-4-cyclopropoxyphenyl)pyrimidine-4-carboxylic acid]
[11]; ambient for about 1 day
  effect of exposure to ambient: become disordered

## O=C(O)c1cc(-c2ccc(OC3CC3)c(Cl)c2)ncn1 [Compound I sodium amorphous, 6-(3-chloro-4-cyclopropoxyphenyl)pyrimidine-4-carboxylic acid]
[11]; heated to about 150° C.
  form conversion on heating: converts to Compound I sodium Form B

## O=C(O)c1cc(-c2ccc(OC3CC3)c(Cl)c2)ncn1 [Compound I, 6-(3-chloro-4-cyclopropoxyphenyl)pyrimidine-4-carboxylic acid]
[12]
  solubility: < 4000 µg/mL
